This experiment deals with CEM cells HIV-1 protection, formazan growth assay. Put plainly: NCI AIDS Antiviral Assay. The conditions noted are these: for pIC50: measured here: growth of uninfected CEM cells. The method in brief:
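Screen of anti-HIV-1 activity in human CEM cells using a formazan-based growth measurement at five drug concentrations. Hits with 50% or greater protection were repeated, and confirmation required reproducible complete protection.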

The structures appear in SMILES notation. pEC50, pIC50: −log10 of the molar value. Values joined by “and” are separate entries in the source; they are usually repeats but may differ in a detail not shown here. Equal entries are not always repeated. Active and inactive are the calls of the source.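 The calls were made as follows: active = compounds giving half or more protection of infected cells from virus-caused growth loss, again on retest; inactive = the rest.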 Where a SMILES comes first, the peptide text is derived from it. [ ]: non-standard residue; d: D form. The star is where a group is joined. ξ: configuration not given here. NMeF = CN[C@@H](Cc1ccccc1)C(=O)O; NMeV = CN[C@H](C(=O)O)C(C)C; ξNMeN = CNC(CC(N)=O)C(=O)O; NMeA = CN[C@@H](C)C(=O)O; ξNMeV = CNC(C(=O)O)C(C)C; Boc = CC(C)(C)OC(=O)*

Consider `COc1ccc(/C=N/N=C(\N)NO)c(OC)c1OC`, for which the pEC50 (usually the EC50 on a negative log10 scale, so that one unit is a factor of ten) was < 3.70 and the pIC50 (usually −log10 of the IC50, conventionally taken in molar units) was < 3.70.

As for `CSc1nc(C#N)c(N)n1C`, the pEC50 is < 3.70 and the pIC50 was < 3.70.

Regarding `CCCCCCCCCCCCCCCCCCCCCCCCCCCCCC=C(c1cc(Cl)c(OC)c(C(=O)OC)c1)c1cc(Cl)c(OC)c(C(=O)OC)c1`, the pEC50 was < 5.65 and the pIC50 was < 5.65.

Consider `Cc1cccc2c1C/C(=C1\CCc3c(C)cccc31)C2=O`, for which the outcome was inactive.

Consider `CC1CCN(C(C)(C)C)P(=O)(Cc2ccccc2)O1` (centres undefined), for which the result was inactive.

For `CN1BN(C)BN(C)B1`, the pEC50 was < 2.69 and the pIC50 is < 2.69.

In the case of `COC(=O)[C@H](C)N(C)C(=O)C(CC(N)=O)N(C)C(=O)[C@H](Cc1ccccc1)N(C)C(=O)[C@@H]1CCCN1C(=O)[C@H](C(C)C)N(C)C(=O)C(C(C)C)N(C)C(=O)[C@@H](NC(=O)OC(C)(C)C)C(C)C` (some centres undefined) (Boc-V[ξNMeV][NMeV]P[NMeF][ξNMeN][NMeA]-OMe), the pEC50 is < 4.27 and the pIC50 is 4.30.

Turning to `CC(C)OP(=O)(OC(C)C)C(Nc1cccc(C(F)(F)F)c1)c1ccccc1` (centres undefined), the pEC50 was < 3.70 and the pIC50 is 4.47.

As to `C=C1CCC2C(C)(CO)C(O)CCC2(C)C1CC(O)/C(=C/CO)C(=O)O` (centres undefined), the outcome was inactive.

Consider `NC(=O)NC(=O)C(Cc1ccc(Cl)cc1)c1ccccc1` (centres undefined), for which the pEC50 was < 4.07 and the pIC50 is < 4.07.

With `CNC(=O)OC(C)CN1c2ccccc2Sc2ccc(Cl)cc21` (centres undefined), the pEC50 was < 3.70 and the negative-log IC50 (pIC50) is 4.57.

In the case of `CCC(C(=O)NNC(=O)c1cc(OC)c(OC)c(OC)c1)c1ccccc1` (centres undefined), the pEC50 is < 3.70 and the pIC50 is 3.71.

`Cc1nc(C(N)=S)sc1C(=O)CC(=O)C(=O)Nc1c(C(C)C)cccc1C(C)C`: the pEC50 was < 3.52 and the pIC50 is 4.51.

As for `NC(=O)c1ccc[n+](C2=C([O-])c3ccccc3C(=O)/C2=N\S(=O)(=O)c2ccccc2)c1`, the pEC50 is < 3.70 and the pIC50 is 4.95.

In the case of `CC(=O)OCC1OC(OC2=C(c3ccccc3)C(=O)C(OC3OC(COC(C)=O)C(OC(C)=O)C(OC(C)=O)C3OC(C)=O)=C(c3ccccc3)C2=O)C(OC(C)=O)C(OC(C)=O)C1OC(C)=O` (centres undefined), the pEC50 is < 4.47 and the pIC50 is 5.23.

In the case of `CCCCOP(=O)(OCCCC)c1ccccc1`, the pEC50 is 7.20 and the pIC50 was < 3.70.

On to `Cc1cn(C2CC(N=[N+]=[N-])C(COC(=O)C3CCC(=O)N3)O2)c(=O)[nH]c1=O` (centres undefined), for which the outcome was active and the pIC50 is 4.31.

For `CCSc1nnc2c(-c3ccccc3)n[nH]c2n1`, the result was inactive.

With `Brc1cnc2n[nH]nc2c1`, the pEC50 was < 3.04 and the pIC50 was 3.28.

As to `Cc1ccc(NCCN(C)C)c2c(=O)c3cc(O)ccc3oc12`, the pEC50 is < 3.81 and the pIC50 was 5.99.

For `COC(=O)/C=C(\C(=O)OC)c1cc(C)c2cc(C(C)C)ccc(C)c1-2`, the pEC50 is < 3.70 and the pIC50 is 4.55.

On to `CCN(C(=O)N[C@@H](Cc1ccccc1)C(=O)N[C@@H](CC(C)C)C(=O)OC)c1ccccc1`, for which the pEC50 was 5.30 and the pIC50 is 4.54.

Turning to `COC1N(C2CC(F)C(CO)O2)C(=O)NC(=O)C1(C)I` (centres undefined), the pEC50 is 8.47; the result was active; the pIC50 was 4.24 and 5.21.

As to `O=C1[C@@H]2C(c3ccncc3)=NO[C@@H]2C(=O)N1c1ccc(Cc2ccc(N3C(=O)[C@H]4C(c5ccncc5)=NO[C@H]4C3=O)cc2)cc1`, the pEC50 is < 4.92 and the pIC50 was < 4.92.

Turning to `CO/C(N)=C(\C#N)N=Cc1ccc2ccccc2c1`, the pEC50 is < 3.70 and the pIC50 was 4.43.

For the compound `COCc1cn(C2C=CC(CO)O2)c(=O)[nH]c1=O` (centres undefined), the pEC50 was 4.76 and the pIC50 was 3.91.

For `Cc1nc(N)nc(N)c1N1CCN(c2ccc(C#N)cc2)CC1`, the pEC50 was < 4.00 and the negative-log IC50 (pIC50) is < 4.00.

On to `CCOC(=O)C1=CNc2ccccc2N=C1N`, for which the pEC50 is < 3.70 and the pIC50 was 4.46.

Turning to `COc1ccc(-c2cc(-c3ccc(C)cc3)n(C3OC(COC(C)=O)C(OC(C)=O)C(OC(C)=O)C3OC(C)=O)c(=S)c2C#N)cc1` (centres undefined), the pEC50 is < 3.70 and the pIC50 was < 3.70.

For `CC[C@@]1(O)C(=O)OCc2c1cc1n(c2=O)Cc2cc3c(OC)cccc3nc2-1`, the pEC50 was < 7.00 and the pIC50 was 7.85.

As to `CC(=O)N1C(=O)/C(=C\C(=O)c2ccc([N+](=O)[O-])cc2)c2ccccc21`, the pEC50 was < 3.70 and the pIC50 is 5.55.

Consider `CC1(C)SC(C)(C)N2C(=O)[C@H]3N(C(=O)[C@@H]21)C(C)(C)SC3(C)C`, for which the pEC50 is < 4.12 and the pIC50 is < 4.12.

In the case of `CC(C)c1cc2c(cc1S(=O)(=O)O)[C@@]1(C)CCC[C@@](C)(C(=O)O)C1CC2` (some centres undefined), the pEC50 is < 3.70 and the pIC50 is < 3.70.

As for `CC(C)C[C@H]1[C@@H](OCc2ccccc2)COS(=O)(=O)N1[C@H](C)c1ccccc1`, the pEC50 is < 3.70 and the pIC50 is 4.95.

With `O=c1[nH]c(C2CCCCC2)nc2cc(Cl)ccc12`, the outcome was inactive.

Consider `O=C(c1cccc(OCc2ccccc2)c1OCc1ccccc1)N1CCSC1=S`, for which the pEC50 was < 3.70 and the pIC50 was 5.04.

As for `CN(C)C[C@H]1C2C=CC(C2)[C@@H]1CO` (some centres undefined), the pEC50 is < 3.31 and the pIC50 is < 3.31.

Turning to `C/C(=C\C(=O)OCCCCCCCC(N)=O)C(O)[C@@H]1OCC(C/C=C/[C@@H](C)[C@H](C)O)[C@@H](O)[C@H]1O` (some centres undefined), the pEC50 was < 3.70 and the pIC50 was < 3.70.

`CN(C)c1ccc2c(c1)-c1cc(N(C)C)ccc1C2=C/C=C1\C(=O)c2ccccc2C1=C(C#N)C#N`: the pEC50 was < 4.81 and the pIC50 was < 4.81.

For `CCCOC(=O)c1cc(OC(C)=O)c2c(OC)ccc(OC)c2c1`, the pEC50 is < 4.39 and the pIC50 is < 4.39.

For the compound `CC1CCCCCC(=O)c2c(O)cc(O)cc2CC(=O)O1` (centres undefined), the pEC50 was < 3.07 and the pIC50 was 3.93.

As for `CC1CCCN2C(=O)CN(Cc3ccccc3)CC(=O)N12` (centres undefined), the result was inactive.

As to `Cc1c(-c2ccc(-c3ccccc3F)cc2)nc2ccc(F)cc2c1C(=O)O`, the pEC50 was < 3.20 and the pIC50 was 6.70.

`CCOP(=O)(O)C(Nc1ccc(N=Nc2ccccc2)cc1)c1cccc(C(Nc2ccc(N=Nc3ccccc3)cc2)P(=O)(O)OCC)c1` (centres undefined): the pEC50 is < 3.70 and the pIC50 was 4.45.

In the case of `O=C(CC(C(=O)c1cccs1)c1ccc2c(c1)OCO2)c1ccccc1` (centres undefined), the pEC50 was < 3.70 and the pIC50 is < 3.70.

Turning to `C[C@H](CCC1=NCCN1)[C@H]1CC[C@H]2[C@@H]3CC[C@@H]4C[C@H](O)CC[C@]4(C)[C@H]3CC[C@]12C`, the pEC50 was < 4.00 and the pIC50 was 4.86.

For `OC1(CCc2ccccc2)COC(C(F)(F)F)(C(F)(F)F)C1` (centres undefined), the pEC50 was < 3.70 and the pIC50 was < 3.70.

Turning to `CCOC(=O)/N=C(\N)SCc1ccccc1`, the outcome was inactive.

Regarding `CCOC(=O)C1C=CC(C)C2CCCCC12N1CCCC1` (centres undefined), the result was inactive.

In the case of `COc1cc2c(c(OC)c1OC)C(=O)[C@H](O)[C@H]2NC(N)=O`, the pEC50 was < 3.70 and the pIC50 is 3.98.

As to `CCOP(=O)(CN1CCNCCNCC1)OCC`, the pEC50 was < 3.70 and the pIC50 is < 3.70.

Consider `Cc1ccc2[nH]c3[nH]c(=O)[nH]c(=O)c3c2c1`, for which the pEC50 is < 3.70 and the pIC50 is < 3.70.

With `CCn1c(N)c(N=O)c(=O)n(C)c1=O`, the pEC50 was < 3.70 and the negative-log IC50 (pIC50) was < 3.70.

Consider `CC(=O)CC(=O)Nc1c(C)[c]([Hg][O]C(C)=O)c(C)[c]([Hg][O]C(C)=O)[c]1[Hg][O]C(C)=O`, for which the pEC50 is < 5.83 and the pIC50 was < 5.83.

`Cc1ccc2c(c1)P(=O)(O)c1cc(C)ccc1S2(=O)=O`: the pEC50 was < 3.70 and the pIC50 was < 3.70.

In the case of `COC1/C=C/OC2(C)Oc3c(C)c(O)c4c(O)c(c(/C=N/N5CC(C)N(C(=O)c6ccccc6)C(C)C5)c(O)c4c3C2=O)NC(=O)C(C)=C/C=C/C(C)C(O)C(C)C(O)C(C)C(OC(C)=O)C1C` (centres undefined), the pEC50 is < 3.70 and the pIC50 is 5.19.

In the case of `O=C1OCc2cc[n+]([O-])cc21`, the pEC50 is < 2.78 and the pIC50 was < 2.78.

On to `Cc1cc(Br)c(O)c(-c2cscn2)c1`, for which the pEC50 is < 3.70 and the pIC50 is 4.95.

Take `CC(C)(C)N1C[C@H](C(=O)c2ccccc2)[C@@H]1c1ccccc1`: the pEC50 is < 4.47 and the pIC50 was < 4.47.

Regarding `Nc1ccn([C@H]2CO[C@@H](CO)[C@@H]2O)c(=O)n1`, the pEC50 was < 3.70 and the pIC50 was < 3.70.

`O=C(CCN1CCN(c2ccccc2)CC1)N1CCc2c([nH]c3ccccc23)C1c1cccnc1` (centres undefined): the pEC50 was < 4.81 and the pIC50 was < 4.81.

For `O=c1c2ccccc2nc(-c2ccccc2)n1NC(=S)Nc1cccc(Cl)c1`, the pEC50 is < 4.48 and the pIC50 is < 4.48.

In the case of `CCOC(=O)/C(=C\c1ccc(Cl)cc1)C(C)=O`, the pEC50 is < 3.43 and the pIC50 is 4.19.

On to `CCCN(CCC)c1cc2c(cc1F)c(=O)c(C(=O)O)cn2-c1ccc(N2CCN(C)CC2)cn1`, for which the pEC50 is < 3.70 and the pIC50 was 4.83.

Take `COc1ccc(C(=CCC[C@H]2CC[C@@]3(C)[C@@H](CC[C@@H]4[C@@H]3CC[C@]3(C)[C@@H](C(C)CCCC(C)C)CC[C@@H]43)C2)c2ccc(OC)c(C(=O)O)c2)cc1C(=O)O` (some centres undefined): the pEC50 is < 3.70 and the pIC50 was < 3.70.

On to `O=C1c2ccccc2C(=O)c2sc(Nc3ccccc3C(F)(F)F)nc21`, for which the pEC50 is < 3.70 and the pIC50 was 4.96.

In the case of `COc1ccc(-n2[nH]nc(C(N)=O)c2=O)cc1`, the pEC50 was < 3.70 and the pIC50 was < 3.70.

As to `Nc1nc(-c2ccc(Cl)cc2)nc2sc3c(c12)CCCCC3`, the pEC50 is < 4.52 and the pIC50 is < 4.52.

The values above are taken from PubChem BioAssay AID179 (DTP/NCI, 2004).
